Experiments:
Test in all cases: relative viability (nuclei count vs DMSO), 5 days (fraction); higher = more cells survive
[1] = compound: C=CCNC1=C2C[C@@H](C)C[C@H](OC)[C@H](O)[C@@H](C)/C=C(\C)[C@H](OC(N)=O)[C@@H](OC)/C=C\C=C(/C)C(=O)NC(=CC1=O)C2=O [17-AAG]
Outline: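 Following overnight incubation at 37 °C, lung cancer cell lines in 1536-well plates were pinned with five library-drug doses (not always all listed) in √10 steps on vehicle-anchored plates. The cells then spent 5 days without medium change before a combined fix, permeabilisation and Hoechst stain, 4× imaging and MetaXpress nuclear counts. Viability is the treated-to-vehicle ratio of nuclei, taken as the median across plates. Only plates with control CV below 25% and at least one doubling passed.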

[2] = compound: C=CCNC1=C2C[C@@H](C)C[C@H](OC)[C@H](O)[C@@H](C)/C=C(\C)[C@H](OC(N)=O)[C@@H](OC)/C=C\C=C(/C)C(=O)NC(=CC1=O)C2=O [17-AAG] + Cc1cc(Nc2cc(N3CCN(C)CC3)nc(Sc3ccc(NC(=O)C4CC4)cc3)n2)n[nH]1 [Tozasertib] (partner 0.1 µM)
Outline: (§1)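 Lung cancer cell lines were seeded in 1536-well plates and dosed by pin tool the next day, with either a single drug or a fixed anchor-drug dose combined with five library-drug doses (not always all listed) spaced in √10 steps. Five days later, one step fixed the cells and stained their nuclei (final 0.05% Triton X-100, 1% formaldehyde, 1 ug/ml Hoechst), and nuclei were counted on 4× images. Relative viability is the nuclei count in treated wells divided by the count in vehicle wells, and each value is the median of duplicate plates.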

[3] = compound: C=CCNC1=C2C[C@@H](C)C[C@H](OC)[C@H](O)[C@@H](C)/C=C(\C)[C@H](OC(N)=O)[C@@H](OC)/C=C\C=C(/C)C(=O)NC(=CC1=O)C2=O [17-AAG] + CC1(C)CCC(c2ccc(Cl)cc2)=C(CN2CCN(c3ccc(C(=O)NS(=O)(=O)c4ccc(N[C@H](CCN5CCOCC5)CSc5ccccc5)c(S(=O)(=O)C(F)(F)F)c4)cc3)CC2)C1 [Navitoclax] (partner 0.5 µM)
Outline: as §1

[4] = compound: C=CCNC1=C2C[C@@H](C)C[C@H](OC)[C@H](O)[C@@H](C)/C=C(\C)[C@H](OC(N)=O)[C@@H](OC)/C=C\C=C(/C)C(=O)NC(=CC1=O)C2=O [17-AAG] + N=C(N)NC(=N)NCCc1ccccc1 [Phenformin] (partner 250 µM)
Outline: as §1

| Cell Line | relative viability ([1]; 0.00128 µM) | relative viability ([1]; 0.004048 µM) | relative viability ([1]; 0.0128 µM) | relative viability ([1]; 0.04048 µM) | relative viability ([1]; 0.128 µM) | relative viability ([2]; first compound 0.00128 µM) | relative viability ([2]; first compound 0.004048 µM) | relative viability ([2]; first compound 0.0128 µM) | relative viability ([2]; first compound 0.04048 µM) | relative viability ([2]; first compound 0.128 µM) | relative viability ([3]; first compound 0.00128 µM) | relative viability ([3]; first compound 0.004048 µM) | relative viability ([3]; first compound 0.0128 µM) | relative viability ([3]; first compound 0.04048 µM) | relative viability ([3]; first compound 0.128 µM) | relative viability ([4]; first compound 0.00128 µM) | relative viability ([4]; first compound 0.004048 µM) | relative viability ([4]; first compound 0.0128 µM) | relative viability ([4]; first compound 0.04048 µM) | relative viability ([4]; first compound 0.128 µM) |
| --- | --- | --- | --- | --- | --- | --- | --- | --- | --- | --- | --- | --- | --- | --- | --- | --- | --- | --- | --- | --- |
| NCI-H1395 | 0.79 | 0.818 | 0.648 | 0.388 | 0.342 | 0.625 | 0.698 | 0.694 | 0.408 | 0.342 | 1.03 | 1.29 | 0.698 | 0.458 | 0.344 | 0.449 | 0.425 | 0.4 | 0.358 | 0.324 |
| NCI-H1437 | 1.03 | 0.931 | 0.637 | 0.249 | 0.178 | 0.4 | 0.477 | 0.296 | 0.311 | 0.164 | 1.11 | 0.939 | 0.936 | 0.162 | 0.132 | 0.312 | 0.316 | 0.179 | 0.153 | 0.129 |
| NCI-H1650 | 0.89 | 0.477 | 0.197 | 0.2 | 0.144 | 0.458 | 0.317 | 0.215 | 0.175 | 0.206 | 1.19 | 0.782 | 0.407 | 0.181 | 0.171 | 0.294 | 0.15 | 0.146 | 0.147 | 0.157 |
| NCI-H1651 | 0.955 | 0.964 | 0.945 | 0.681 | 0.335 | 0.778 | 0.667 | 0.612 | 0.302 | 0.14 | 1.05 | 0.882 | 1.01 | 0.214 | 0.148 | 0.335 | 0.548 | 0.242 | 0.151 | 0.107 |
| NCI-H1666 | 1.01 | 0.913 | 0.723 | 0.47 | 0.364 | 0.589 | 0.599 | 0.46 | 0.343 | 0.294 | 0.958 | 0.699 | 0.277 | 0.314 | 0.236 | 0.547 | 0.56 | 0.432 | 0.316 | 0.329 |
| NCI-H1734 | 0.98 | 1.02 | 0.839 | 0.284 | 0.15 | 0.272 | 0.293 | 0.224 | 0.161 | 0.125 | 0.871 | 0.811 | 0.756 | 0.24 | 0.114 | 0.371 | 0.368 | 0.305 | 0.142 | 0.118 |
| NCI-H1755 | 1.01 | 0.943 | 0.897 | 0.433 | 0.238 | 0.609 | 0.477 | 0.481 | 0.363 | 0.215 | 1.01 | 1 | 0.957 | 0.8 | 0.315 | 0.622 | 0.57 | 0.578 | 0.254 | 0.0941 |
| NCI-H1793 | 0.967 | 0.842 | 0.282 | 0.186 | 0.135 | 0.385 | 0.313 | 0.398 | 0.154 | 0.123 | 0.346 | 0.323 | 0.228 | 0.192 | 0.151 | 0.349 | 0.391 | 0.229 | 0.146 | 0.0817 |
| NCI-H1915 | 0.917 | 0.966 | 0.952 | 0.152 | 0.0877 | 0.455 | 0.442 | 0.401 | 0.392 | 0.111 | 0.763 | 0.754 | 0.797 | 0.771 | 0.409 | 0.358 | 0.372 | 0.308 | 0.106 | 0.0928 |
| NCI-H1944 | 0.863 | 0.915 | 0.896 | 0.251 | 0.178 | 0.239 | 0.248 | 0.219 | 0.213 | 0.138 | 1.05 | 1.05 | 1.02 | 0.948 | 0.372 | 0.187 | 0.194 | 0.127 | 0.12 | 0.114 |
| NCI-H1975 | 0.909 | 0.889 | 0.372 | 0.16 | 0.167 | 0.796 | 0.587 | 0.145 | 0.12 | 0.0964 | 1.23 | 0.928 | 0.453 | 0.186 | 0.145 | 0.385 | 0.287 | 0.204 | 0.13 | 0.0987 |
| NCI-H1993 | 0.937 | 0.909 | 0.611 | 0.476 | 0.432 | 0.56 | 0.591 | 0.585 | 0.42 | 0.453 | 0.904 | 0.933 | 0.529 | 0.564 | 0.441 | 0.507 | 0.451 | 0.472 | 0.397 | 0.404 |
| NCI-H2009 | 0.961 | 0.995 | 0.93 | 0.894 | 0.274 | 0.727 | 0.72 | 0.756 | 0.65 | 0.259 | 1.1 | 1.09 | 1.07 | 0.884 | 0.369 | 0.499 | 0.43 | 0.481 | 0.412 | 0.128 |
| NCI-H2023 | 0.919 | 0.724 | 0.122 | 0.0716 | 0.0728 | 0.51 | 0.351 | 0.102 | 0.0765 | 0.0654 | 0.989 | 0.867 | 0.641 | 0.11 | 0.112 | 0.416 | 0.226 | 0.0687 | 0.0792 | 0.0691 |
| NCI-H2085 | 0.994 | 0.95 | 0.99 | 0.919 | 0.76 | 0.798 | 0.673 | 0.71 | 0.799 | 0.679 | 1.08 | 1.11 | 1.18 | 1.11 | 0.808 | 0.688 | 0.734 | 0.68 | 0.595 | 0.406 |

— the supplement of paper PMC10307832
